Reference: patent US20210047291A1, “PESTICIDALLY ACTIVE HETEROCYCLIC DERIVATIVES WITH SULFUR CONTAINING SUBSTITUENTS” (SYNGENTA PARTICIPATIONS AG, priority 2018, published 2021)

How the values were obtained:
Assay type in all cases: in vivo
[1] = tested on: Myzus persicae (Green peach aphid); experiment: Example B6: Myzus persicae systemic activity, pea seedlings; conditions: Myzus persicae, 144 h; test rate of 24 ppm; mixed ages; 6 days after placing seedlings into test solutions; read-out: mortality
Method: Roots of pea seedlings infested with an aphid population of mixed ages were placed directly into aqueous test solutions prepared from 10,000 DMSO stock solutions. The samples were assessed for mortality 6 days after placing seedlings into test solutions.

[2] = tested on: Spodoptera littoralis (Egyptian Cotton Leaf Worm); experiment: Example B9: Spodoptera littoralis, cotton leaf discs (mortality, anti-feeding, growth inhibition); conditions: foliar, 72 h, application rate of 200 ppm, L1 larvae, 3 days after infestation, read-out: control (mortality, anti-feeding effect or growth inhibition)
Method: Cotton leaf discs were placed onto agar in 24-well microtiter plates and sprayed with aqueous test solutions prepared from 10,000 ppm DMSO stock solutions. After drying the leaf discs were infested with five L1 larvae. The samples were assessed for mortality, anti-feeding effect, and growth inhibition in comparison to untreated samples 3 days after infestation. Control of Spodoptera littoralis by a test sample is given when at least one of the categories mortality, anti-feedant effect, and growth inhibition is higher than the untreated sample.

[3] = tested on: Plutella xylostella (Diamond Back Moth); experiment: Example B7: Plutella xylostella, artificial diet, L2 larvae; conditions: 120 h, application rate of 200 ppm, L2 larvae, 5 days after infestation, read-out: effect in at least one of the two categories (mortality or growth inhibition)
Method: (§1) 24-well microtiter plates with artificial diet were treated with aqueous test solutions prepared from 10,000 ppm DMSO stock solutions by pipetting. After drying, the plates were infested with L2 larvae (10 to 15 per well). The samples were assessed for mortality and growth inhibition in comparison to untreated samples 5 days after infestation.

[4] = tested on: Melodoigyne incognita; experiment: Example B14: Melodoigyne incognita juvenile mobility, in vitro profiling in 96 well plate; conditions: 200 ppm; after 24 h; second stage juveniles; read-out: control (juvenile mobility)
Method: Test solutions are prepared from 10,000 ppm DMSO stock solutions with a TECAN robot to achieve 20 μL of 1000, 200, 100, 50, 25 and 12.5 ppm. For each concentration three replicates are produced. Per well, 80 μL nematode solution is added containing 100 to 150 freshly harvested second stage juveniles of Melodoigyne incognita. The plates are covered and stored at room temperature in the dark and incubated for 24 h. Mobility of the exposed juveniles in a treated well is measured using an imaging tool and compared to an average of 12 untreated replicates.

[5] = tested on: Myzus persicae (Green peach aphid); experiment: Example B5: Myzus persicae feeding/contact activity, sunflower leaf discs; conditions: Myzus persicae, foliar, 144 h; application rate of 200 ppm; mixed ages; 6 days after infestation; read-out: mortality
Method: Sunflower leaf discs were placed onto agar in a 24-well microtiter plate and sprayed with aqueous test solutions prepared from 10,000 ppm DMSO stock solutions. After drying, the leaf discs were infested with an aphid population of mixed ages. The samples were assessed for mortality 6 days after infestation.

[6] = tested on: Euschistus heros (Neotropical Brown Stink Bug); experiment: Example B3: Euschistus heros, soybean leaves, N2 nymphs; conditions: Euschistus heros, 120 h; application rate of 200 ppm; N2 nymphs; 5 days after infestation; read-out: effect in at least one of the two categories (mortality or growth inhibition)
Method: Soybean leaves on agar in 24-well microtiter plates were sprayed with aqueous test solutions prepared from 10,000 ppm DMSO stock solutions. After drying the leaves were infested with N2 nymphs. The samples were assessed for mortality and growth inhibition in comparison to untreated samples 5 days after infestation.

[7] = tested on: Diabrotica Balteata (Corn Root Worm); experiment: Example B2: Diabrotica balteata, maize sprouts, L2 larvae; conditions: for percent effect (mortality or growth inhibition) at 200 ppm: Diabrotica balteata, 96 h, application rate of 200 ppm, L2 larvae, 4 days after infestation, read-out: effect in at least one of the two categories (mortality or growth inhibition)
Method: as §1, with “Maize sprouts placed onto an agar layer in 24-well” for “24-well”, “plates” for “plates with artificial diet”, “spraying.” for “pipetting.”, “(6” for “(10”, “10” for “15”, “4” for “5”

[8] = tested on: Frankliniella occidentalis (Western Flower Thrips); experiment: Example B4: Frankliniella occidentalis feeding/contact activity, sunflower leaf discs; conditions: foliar, 168 h, application rate of 200 ppm, mixed ages, 7 days after infestation
Method: Sunflower leaf discs were placed on agar in 24-well microtiter plates and sprayed with aqueous test solutions prepared from 10,000 DMSO stock solutions. After drying the leaf discs were infested with a Frankliniella population of mixed ages. The samples were assessed for mortality 7 days after infestation.

[9] = tested on: Tetranychus urticae (Two-Spotted Spider Mite); experiment: Example B10: Tetranychus urticae feeding/contact activity, bean leaf discs; conditions: foliar, 192 h, application rate of 200 ppm, mixed population (mobile stages), 8 days after infestation
Method: Bean leaf discs on agar in 24-well microtiter plates were sprayed with aqueous test solutions prepared from 10,000 ppm DMSO stock solutions. After drying the leaf discs were infested with a mite population of mixed ages. The samples were assessed for mortality on mixed population (mobile stages) 8 days after infestation.

| Compound | mortality at 24 ppm [1] | percent control (mortality, anti-feedant effect or growth inhibition) at 200 ppm [2] | percent effect (mortality or growth inhibition) at 200 ppm [3] | pest or weed control at 200 ppm [4] | mortality at 200 ppm [5] | percent effect (mortality or growth inhibition) at 200 ppm [6] | percent effect (mortality or growth inhibition) at 200 ppm [7] | mortality at 200 ppm [8] | Mortality (%) ([7]; Concentration 200 ppm, Diabrotica balteata (Example B2), listed as drawing 154) | mortality at 200 ppm [9] |
| --- | --- | --- | --- | --- | --- | --- | --- | --- | --- | --- |
| CCC(=O)N(OC)c1cnc(-c2nc3cc(C(F)(F)F)ncc3n2C)c(S(=O)(=O)CC)c1 [P29, N-[5-ethylsulfonyl-6-[3-methyl-6-(trifluoromethyl)imidazo[4,5-c]pyridin-2-yl]-3-pyridyl]-N-methoxy-propanamide] | ≥ 80% | ≥ 80% | ≥ 80% | ≥ 80% | ≥ 80% | ≥ 80% | ≥ 80% | – | – | – |
| CCS(=O)(=O)c1cc(N(C)C(=O)C(C)(C)C#N)cnc1-c1nc2cc(C(F)(F)F)ncc2n1C [P43, 2-cyano-N-[5-ethylsulfonyl-6-[3-methyl-6-(trifluoromethyl)imidazo[4,5-c]pyridin-2-yl]-3-pyridyl]-N,2-dimethyl-propanamide] | ≥ 80% | ≥ 80% | ≥ 80% | ≥ 80% | ≥ 80% | ≥ 80% | ≥ 80% | ≥ 80% | – | – |
| CCS(=O)(=O)c1cc(N(C(C)=O)C2CC2)cnc1-c1nc2cc(C(F)(F)F)ncc2n1C [P10, N-cyclopropyl-N-[5-ethylsulfonyl-6-[3-methyl-6-(trifluoromethyl)imidazo[4,5-c]pyridin-2-yl]-3-pyridyl]acetamide] | ≥ 80% | ≥ 80% | ≥ 80% | ≥ 80% | ≥ 80% | ≥ 80% | ≥ 80% | – | – | – |
| CCS(=O)(=O)c1cc(N(OC)C(C)=O)cnc1-c1nc2cc(C(F)(F)F)ncc2n1C [P30, N-[5-ethylsulfonyl-6-[3-methyl-6-(trifluoromethyl)imidazo[4,5-c]pyridin-2-yl]-3-pyridyl]-N-methoxy-acetamide] | ≥ 80% | ≥ 80% | ≥ 80% | ≥ 80% | ≥ 80% | ≥ 80% | ≥ 80% | – | – | – |
| CCS(=O)(=O)c1cc(NC(C)=O)cnc1-c1nc2cc(C(F)(F)F)ncc2n1C [P4, N-[5-ethylsulfonyl-6-[3-methyl-6-(trifluoromethyl)imidazo[4,5-c]pyridin-2-yl]-3-pyridyl]acetamide] | ≥ 80% | – | – | – | ≥ 80% | ≥ 80% | ≥ 80% | ≥ 80% | 100% | – |
| CCS(=O)(=O)c1cc(N(C)C(=O)COC)cnc1-c1nc2cc(C(F)(F)F)ncc2n1C [P12, N-[5-ethylsulfonyl-6-[3-methyl-6-(trifluoromethyl)imidazo[4,5-c]pyridin-2-yl]-3-pyridyl]-2-methoxy-N-methyl-acetamide] | ≥ 80% | ≥ 80% | ≥ 80% | ≥ 80% | ≥ 80% | ≥ 80% | ≥ 80% | – | – | – |
| CCS(=O)(=O)c1cc(N(C)C(=O)C2CC2)cnc1-c1nc2cc(C(F)(F)F)ncc2n1C [P9, N-[5-ethylsulfonyl-6-[3-methyl-6-(trifluoromethyl)imidazo[4,5-c]pyridin-2-yl]-3-pyridyl]-N-methyl-cyclopropanecarboxamide] | ≥ 80% | ≥ 80% | ≥ 80% | ≥ 80% | ≥ 80% | ≥ 80% | ≥ 80% | ≥ 80% | – | – |
| CCS(=O)(=O)c1cc(N(C)C(=O)C2(C#N)CC2)cnc1-c1nc2cc(C(F)(F)F)ncc2n1C [P38, 1-cyano-N-[5-ethylsulfonyl-6-[3-methyl-6-(trifluoromethyl)imidazo[4,5-c]pyridin-2-yl]-3-pyridyl]-N-methyl-cyclopropanecarboxamide] | ≥ 80% | – | ≥ 80% | ≥ 80% | ≥ 80% | ≥ 80% | ≥ 80% | – | – | ≥ 80% |
| CCS(=O)(=O)c1cc(N(C(C)=O)C2(C#N)CC2)cnc1-c1nc2cc(C(F)(F)F)ncc2n1C [P42, N-(1-cyanocyclopropyl)-N-[5-ethylsulfonyl-6-[3-methyl-6-(trifluoromethyl)imidazo[4,5-c]pyridin-2-yl]-3-pyridyl]acetamide] | ≥ 80% | ≥ 80% | ≥ 80% | ≥ 80% | ≥ 80% | ≥ 80% | – | – | – | ≥ 80% |
| CCS(=O)(=O)c1cc(N(C)C(=O)C(F)(F)F)cnc1-c1nc2cc(C(F)(F)F)ncc2n1C [P11, N-[5-ethylsulfonyl-6-[3-methyl-6-(trifluoromethyl)imidazo[4,5-c]pyridin-2-yl]-3-pyridyl]-2,2,2-trifluoro-N-methyl-acetamide] | ≥ 80% | ≥ 80% | ≥ 80% | ≥ 80% | ≥ 80% | ≥ 80% | ≥ 80% | – | – | – |
| CCC(=O)N(c1cnc(-c2nc3cc(C(F)(F)F)ncc3n2C)c(S(=O)(=O)CC)c1)C1CC1 [P40, N-cyclopropyl-N-[5-ethylsulfonyl-6-[3-methyl-6-(trifluoromethyl)imidazo[4,5-c]pyridin-2-yl]-3-pyridyl]propanamide] | ≥ 80% | ≥ 80% | ≥ 80% | ≥ 80% | ≥ 80% | ≥ 80% | ≥ 80% | – | – | – |
